Laboratory results: patent US12583895B2, “Polypeptides for restoring endothelial function and methods of use thereof” (Vanderbilt University, priority 2019, dated 2026)
Entries after “also recorded” stand apart in the source; their conditions may differ. Non-standard residues stand in square brackets, D forms with d. No end group written: not given here. pS = N[C@@H](COP(=O)(O)O)C(=O)O

Key:
rat aorta = assay: Carbachol-induced relaxation of anisomycin-treated rat aorta; assay type: cell-based; conditions: NiPp 500 μM 30 min pretreatment, then anisomycin 200 μM 1 h
Procedure: (§1) RA rings were suspended in a muscle bath and incubated with either buffer alone (Ctrl), Aniso (200 μM) for 1 h, or NiPp (500 μM) for 30 min followed by Aniso (200 μM) for 1 h. […] Proteins were extracted […] immunoblotted to examine p38MAPK phosphorylation. Quantification of relative phosphorylation to total p38MAPK level is shown. n=10, *p<0.05 in one-way ANOVA with Tukey post-test. NiPp restores endothelial dysfunction and reduced p38 MAPK phosphorylation induced by anisomycin in RA.
RA rings were suspended in a muscle bath and incubated with either buffer alone (Ctrl), Aniso (200 μM) for 1 h, or NiPp (500 μM) for 30 min followed by Aniso (200 μM) for 1 h. […] The force generated was determined and was adjusted to the weight and length of the tissue. Representative tracings from 1 out of 6 different rats are shown. […] Proteins were extracted and phosphorylation of p38 MAPK was determined by Western blot analysis. […] Data are expressed as mean±SD. […]
This produced the maximal force tension relationship as previously described. […] Contractile responses were defined by stress, calculated using force generated by tissues as follows: stress (×10^5 N/m^2)=force (g)×0.0987/area, where area=wet weight (mg)/at maximal length (mm)]/1.055.
Relaxation was calculated as percent change in stress compared to the maximal PE-induced contraction (set as 100%). […]

p38 MAPK γ isoform = target: T1, p38 MAPK γ isoform (Homo sapiens, UniProt P53778); assay: SelectScreen kinase profiling; assay type: biochemical; conditions: NiPp 100 μM
T1 sequence (P53778 1-367): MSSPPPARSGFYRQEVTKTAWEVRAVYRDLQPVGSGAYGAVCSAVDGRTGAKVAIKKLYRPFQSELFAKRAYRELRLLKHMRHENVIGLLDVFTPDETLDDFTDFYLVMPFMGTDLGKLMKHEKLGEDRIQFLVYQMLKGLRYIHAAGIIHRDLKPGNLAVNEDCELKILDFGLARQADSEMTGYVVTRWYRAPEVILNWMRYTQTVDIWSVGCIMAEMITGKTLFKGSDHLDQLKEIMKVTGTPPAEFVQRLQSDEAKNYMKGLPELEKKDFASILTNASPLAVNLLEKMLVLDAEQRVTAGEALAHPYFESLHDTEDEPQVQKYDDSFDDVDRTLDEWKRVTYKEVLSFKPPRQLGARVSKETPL
Procedure: Kinase profiling. NiPp was dissolved in DMSO, screened at a single concentration of 100 μM using in vitro kinase assays (SelectScreen Kinase Profiling Service; ThermoFisher Scientific, Madison WI) including the Z'LYTE and Adapta kinase activity assays and the LanthaScreen Eu Kinase Binding Assay). Candidate interactions were predicted using STRING Version 11 (www.string-db-org) with the human database at confidence=0.7.
Since NiPp treatment was associated with decreased phosphorylation of p38 MAPK in RA, a mechanism of NiPp function can kinase inhibition. Therefore, a kinase profiling assay was performed to determine the effect of NiPp on the activity of a panel of kinases in vitro. The top two kinases inhibited by NiPp were MSK1 and p38 MAPKα. Inhibition to the p38 MAPKα isoform appeared to be specific as inhibition by NiPp to the other isoforms (β, δ, and γ) in the kinaseprofiling screen were only at 5, 3, and 3% respectively. Despite high sequence homology, the isoforms have difference in tissue expression, upstream kinase activators and downstream substrates. The p38 MAPKα isoform, initially identified as a protein that underwent phosphorylation in response to endotoxin treatment and hyperosmolarity shock, plays a role in endothelial dysfunction in that inhibition of this isoform leads to improved endothelial function in animal models of cardiovascular diseases including cardiac hypertrophy, balloon injury, salt/fat induced hypertension and in hypercholesterolemic patients. The α-isoform is also a key regulator of pro-inflammatory cytokine production and itself can be activated by IL1-β. MSK1, a downstream kinase of the p38 MAPK activation (FIG. 19), has complex cell-dependent roles in inflammatory responses. In endothelial cells, MSK1 promotes CREB activation in response to TNFα.

p38 MAPK phosphorylation = p38 MAPK phosphorylation (Western blot) in anisomycin-treated rat aorta; assay type: cell-based; conditions: NiPp 500 μM 30 min pretreatment, then anisomycin 200 μM 1 h, immunoblot
Procedure: as §1
RA rings were suspended in a muscle bath and incubated with either buffer alone (Ctrl), Aniso (200 μM) for 1 h, or NiPp (500 μM) for 30 min followed by Aniso (200 μM) for 1 h. […] The force generated was determined and was adjusted to the weight and length of the tissue. […] Proteins were extracted and phosphorylation of p38 MAPK was determined by Western blot analysis. […] Data are expressed as mean±SD.
p38 MAPK activation with Anisomycin. […] After treatments, endothelial-dependent relaxation was determined or tissues were snap-frozen for Western blot analysis.
Western blot Analysis. […] The protein-antibody complexes were visualized and quantified using the Odyssey Infrared Imaging System. Phosphorylation was calculated as a ratio of the phosphorylated protein to total protein and was then normalized to the untreated tissues (Ctrl) with the control value set as 1.0.

## YARAAARQARASPAARRA(pS)AILPG (YARAAARQARASPAARRA[pS]AILPG) [NiPp, Cell-permeant phosphopeptide mimetic of Niban: transduction domain … conjugated to the region surrounding serine 602 of Niban]
Rat aorta
  endothelial-dependent relaxation (5×10^−7 M CCH) in anisomycin-treated rat aorta: improved; also recorded: prevented; also recorded: restores
p38 MAPK γ isoform
  % inhibition of p38 MAPK γ isoform: 3%
p38 MAPK phosphorylation
  anisomycin-induced p38 MAPK phosphorylation relative to total p38 MAPK: decreased; also recorded: reduced; also recorded: prevented
